In a melting point compilation (Tetko et al.):

melting point [°C]	SMILES
150	CCOC(=O)c1[nH]c(C)c(S(=O)(=O)Cl)c1C
-169	CCCC(C)S (stereo not drawn)
210	O=C(C=NNc1ccccc1)c1ccc(C(=O)C=NNc2ccccc2)cc1
155 to 156	O=C(O)C=Cc1ccsc1
256	N[C@H](C(=O)O)C1CCCCC1
-135	C=CC1CO1 (stereo not drawn)
240	COc1cc(O)c2c(=O)c(-c3ccc(O)cc3)coc2c1
218 to 221	OCC1OC(n2cnc3c(S)ncnc32)C(O)C1O (stereo not drawn)
159	Cc1cccc(O)n1
207	COC(=O)c1sc(SC)c(C#N)c1N
97	CC(C)CCCC(C)C1CCC2C3CC=C4CC(Cl)CCC4(C)C3CCC12C (stereo not drawn)
53	N#Cc1cccc(N=C=O)c1
178	Oc1cccc2cc3cccc(O)c3c(O)c12
173 to 176	O=C(O)C[C@H](C(=O)O)c1ccccc1
160	O=C(O)CCc1nc(-c2ccccc2)c(-c2ccccc2)o1
180	O=C(Oc1cccc(N=Nc2cccc(OC(=O)c3ccccc3)c2)c1)c1ccccc1
78 to 82	CCC(O)(CC)C(=O)O
178 to 180	S=C1NCCCCN1
94 to 98	COc1ccc2ccccc2c1C#N
80 to 81	CCOC(=O)c1cc2ccccc2cc1O
129	CC(=O)Nc1ccc(C)cc1C
40	CC(=O)c1ccccc1C(C)=O
58	CCCCCS(=O)CCCCC

melting point [°C]	SMILES
141	O=C(OCC1OC(O)(COC(=O)c2cccnc2)C(OC(=O)c2cccnc2)C1OC(=O)c1cccnc1)c1cccnc1 (stereo not drawn)
162	C[C@]12CCC(=O)C=C1C(=O)C[C@@H]1[C@@H]2CC[C@@]2(C)[C@H]1CCC21OCCO1
82	CCOC(=O)c1c(-c2ccc(C)c(C)c2)csc1N
47	COc1ccc(OCC2CO2)cc1 (stereo not drawn)
176	N=C(N)NC(=N)NCCc1ccccc1
148	CC(=O)NC(=O)c1ccccc1O
149 to 153	Cc1cc(C(=O)O)n(C(C)(C)C)n1
134 to 137	CC(C)(C)OC(=O)NN1CCCC1C(=O)O (stereo not drawn)
199	Cc1ccccc1N1CSc2nnc(-c3ccccc3)n2C1
64	COc1ccc2nc(C)ccc2c1
214	NC(=O)N(CCO)N=Cc1ccc([N+](=O)[O-])o1
168 to 170	CC1(C)c2ccccc2NC1C(N)=O (stereo not drawn)
150 to 152	NC(=O)c1cccnc1Oc1ccc(Cl)cc1
145	Cc1ccc2ccc3ccc(C)cc3c2c1
44	c1ccc(-c2ncoc2-c2ccccc2)cc1
75 to 77	N#Cc1cnn2c(C(F)(F)F)cc(C(F)(F)F)nc12
205 to 207	NC(=S)c1c[nH]cn1
134	CN(C)CCCNc1c2ccccc2nc2cccc([N+](=O)[O-])c12
73 to 77	c1ccc(Oc2ccc(Oc3ccccc3)cc2)cc1
180	CC12CCC(/C(=C/N(OC(=O)c3ccc([N+](=O)[O-])cc3)c3ccccc3)C1=O)C2(C)C (stereo not drawn)
80	CC1CCC(C)(COC(=O)c2ccccc2C(=O)OCC2(C)CCC(C)C2(C)C)C1(C)C (stereo not drawn)
123	O=Cc1ccc(O)c(F)c1
290	O=c1c(Cc2c(O)oc3ccccc3c2=O)c(O)oc2ccccc12

melting point [°C]	SMILES
34	CCCCCCCCCCS(=O)(=O)Cl
52	CC(Cc1ccccc1)c1ccccc1 (stereo not drawn)
71.5	Nc1ccc(C=O)cc1
145 to 150	NC(=S)c1cc(Cl)nc(Cl)c1
109	Cc1cc(N=Nc2ccccc2)ccc1N=Nc1ccccc1
161 to 164	Cc1cc(O)c(C)c(O)c1
243 to 245	O=C(O)c1ccc(-c2ccccc2)nc1
170	COc1cc(OC)nc(NC(=O)NS(=O)(=O)c2c(-c3nnn(C)n3)cnn2C)n1
159 to 162	CCOC(=O)C(C#N)=c1sc(=C(C#N)C(=O)OCC)s1
94 to 95	O=C(CBr)Nc1ccccc1C(=O)c1ccccc1
106 to 108	CSc1nn(-c2ccccc2)cc1C#N
> 300	Cc1ccc(N2CSc3nnc(-c4cccc([N+](=O)[O-])c4)n3C2)cc1
225 to 226	CC(C)N1CSc2nnc(-c3ccccc3)n2C1
72	CCCCCCCCCCCCCCCCCC(=O)OC(=O)CCCCCCCCCCCCCCCCC
47	N#Cc1ccc(C(F)(F)F)c(F)c1
42 to 43	FC(F)C(F)(F)C(F)(F)C(F)(F)C(F)(F)C(F)(F)C(F)(F)C(F)(F)C(F)(F)C(F)F
167	CCOC(=O)C(=C(C)OC(=O)c1ccccc1)c1cc(C(C(=O)OCC)=C(C)OC(=O)c2ccccc2)c([N+](=O)[O-])cc1[N+](=O)[O-]
90 to 91	OCc1cc(-c2ccco2)on1
82	O=C(c1ccccc1)c1ccc(OCc2ccccc2)cc1
198	CN1C(C(=O)Nc2ccccn2)=C(O)c2ccccc2S1(=O)=O
188	CC1(C(=O)O)CCC(O)(CC(O)c2ccccc2)C1(C)C (stereo not drawn)
-85	CCCCC(O)C(C)C (stereo not drawn)
129 to 132	NC(=O)C1(N2CCCCC2)CCNCC1

melting point [°C]	SMILES
27 to 28	Cc1oncc1I
196	CC(C)(C)N(NC(=O)c1ccccc1)C(=O)c1ccccc1Br
61	CCCCCCCCC(O)CCCCCCCC
100	Cc1cc([N+]([O-])=Nc2ccccc2)ccc1[N+]([O-])=Nc1ccccc1
145 to 148	O=C(O)C=Cc1cccs1
145 to 149	FC(F)(F)c1cnc(S)c(Cl)c1
212	C=C1C(=O)C23C(OC(C)=O)CC4C(C)(C)CCC(OC(C)=O)C4(C=O)C2C(OC(C)=O)CC1C3OC(C)=O (stereo not drawn)
173	O=C(OCCc1ccc(CCOC(=O)c2ccc([N+](=O)[O-])cc2)cc1)c1ccc([N+](=O)[O-])cc1
-66	ClC#CCl
148 to 151	COc1ccc(C#N)cc1[N+](=O)[O-]
213 to 214	Sc1nnc2ccccn12
-70	C=CC(=O)OCC(CC)CC
-69	C=C(C)C(C)(C)CC
-30	C=CC(Cl)(Cl)Cl
98 to 100	CC(C)(C)c1ccc(N)c(N)c1
125 to 126	O=Cc1cc(O)ccc1I
49	c1ccc(Cn2cncn2)cc1
199 to 201	Clc1ccc(Cc2c(N=Cc3ccccc3Cl)n[nH]c2N=Cc2ccccc2Cl)cc1
362 to 363	COC(=O)C1=C(C(=O)OC)C(=O)C(=C2C=Cc3ccccc3N2)C1=O
48 to 51	CCOC(=O)c1cc(-c2cccs2)on1
52	C1=NN(c2ccccc2)CC1
168 to 171	CC(=O)c1cc2c(cc1N)OCO2
-50	ClC1CCCC1

melting point [°C]	SMILES
91 to 92	NC(=NO)c1cc(F)c(F)cc1F
92.5	CC(C)OC(=O)C1(S(=O)(=O)c2ccc(Cl)cc2)CCCC1
164	N#C/C(=C/c1cccnc1)c1nc(-c2ccccc2)cs1
137	COc1ccc(C(O)(c2ccccc2OC)c2ccc(OC)cc2OC)c(OC)c1
173	CCOc1ccc(NC(N)=O)cc1
56	O=Cc1cccc(OCc2ccccc2)c1
4.5	NCCCOCCCCOCCCN
126	Cc1ccc(S(=O)(=O)NCCCN(CCCN(CCCNS(=O)(=O)c2ccc(C)cc2)S(=O)(=O)c2ccc(C)cc2)S(=O)(=O)c2ccc(C)cc2)cc1
273 to 275	CC(CC(N)C(=O)O)C(F)(F)F (racemic)
112 to 115	O=C(CBr)c1ccc(N2CCOCC2)cc1
82	c1n[nH]c2c1CCCC2
229	NS(=O)(=O)c1cc(Cl)c(Cl)c(S(N)(=O)=O)c1
169 to 170	Nc1ccc(S(=O)(=O)N2CCCCC2)cc1
242 to 245	CCOC(=O)c1cn[nH]c1NC(=O)Nc1ccccc1
179 to 180	CCOC(=O)C1=NN(c2ccccc2)C(=O)C1=CC1C(=O)N(c2ccccc2)N=C1C(=O)OCC (stereo not drawn)
209 to 212	O=C(O)C=Cc1ccccc1Cl
49 to 58	OCC1Cc2ccccc2N1 (stereo not drawn)
151	O=C(O)Cc1ccccc1CC(=O)O
77 to 79	COC(=O)c1cscc1Sc1ccc(Cl)cc1
105 to 110	O=C(O)CCCSSCCCC(=O)O

SMILES	melting point [°C]
CCCc1ccccn1	2
CN1C2CCC1CC(OC(=O)c1ccccc1)C2 (stereo not drawn)	49
CCCCCCCF	-73
Clc1cccc(Cl)c1CBr	56
CC(C)(C)C(=O)Cl	-56
COC(=O)c1ccccc1S(=O)(=O)NC(=O)N(C)c1nc(C)nc(OC)n1	142
O=C1CC2OCC=C3CN4CCC56c7ccccc7N1C5C2C3CC46 (stereo not drawn)	287
CN(C)C(=O)Nc1ccc(-n2nc(C(C)(C)C)oc2=O)c(Cl)c1	193
O=C(O)Cc1ccc2c(c1)OCO2	128 to 132
O=C1NC(=O)C([N+](=O)[O-])C(=O)N1	180
N#Cc1sc2c(=O)c3ccccc3c(=O)c=2sc1C#N	225
CCc1nn(C)c(C(=O)NCc2ccc(C(C)(C)C)cc2)c1Cl	65
C=CC1(C(C)CCC)C(=O)NC(=O)NC1=O (stereo not drawn)	90
Nc1cccc2c1Cc1ccccc1-2	126
O=NN1CCOCC1	29
Cc1ccn2nc(S(=O)(=O)Nc3c(F)cccc3F)nc2n1	252
